Source: PubChem BioAssay AID2060909 (Molecular Pharmacology Branch, DTP, NCI, 2025)

Test system: 362531-283-R-J2-PDC complex spheroid viability
Assay: Anticancer human tumor 362531-283-R-J2-PDC patient-derived colon adenocarcinoma cell line growth inhibition [RAS]
Conditions: for viability, T/C: stronger effect = lower value
Outline: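 Tumour cells grown as complex spheroids with HUVEC endothelial cells and mesenchymal stem cells, treated with RAS pathway inhibitor combinations. Each agent spans half-log steps from near clinical Cmax, or 10 microM where Cmax is unknown.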

[1] = curve of first compound, second compound 0.000949 µM
[2] = curve of first compound, second compound 0.003 µM
[3] = curve of first compound, second compound 0.00949 µM
[4] = curve of first compound, second compound 0.03 µM
[5] = curve of first compound, second compound 0.0949 µM
[6] = curve of first compound, second compound 0.3 µM
[7] = second compound 0.000949 µM, first compound 0.0316 µM
[8] = second compound 0.000949 µM, first compound 0.1 µM
[9] = second compound 0.000949 µM, first compound 0.316 µM
[10] = second compound 0.000949 µM, first compound 1 µM
[11] = second compound 0.003 µM, first compound 0.0316 µM
[12] = second compound 0.003 µM, first compound 0.1 µM
[13] = second compound 0.003 µM, first compound 0.316 µM
[14] = second compound 0.003 µM, first compound 1 µM
[15] = second compound 0.00949 µM, first compound 0.0316 µM
[16] = second compound 0.00949 µM, first compound 0.1 µM
[17] = second compound 0.00949 µM, first compound 0.316 µM
[18] = second compound 0.00949 µM, first compound 1 µM
[19] = second compound 0.03 µM, first compound 0.0316 µM
[20] = second compound 0.03 µM, first compound 0.1 µM
[21] = second compound 0.03 µM, first compound 0.316 µM
[22] = second compound 0.03 µM, first compound 1 µM
[23] = second compound 0.0949 µM, first compound 0.0316 µM
[24] = second compound 0.0949 µM, first compound 0.1 µM
[25] = second compound 0.0949 µM, first compound 0.316 µM
[26] = second compound 0.0949 µM, first compound 1 µM
[27] = second compound 0.3 µM, first compound 0.0316 µM
[28] = second compound 0.3 µM, first compound 0.1 µM
[29] = second compound 0.3 µM, first compound 0.316 µM
[30] = second compound 0.3 µM, first compound 1 µM
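Further: spheroids exposed to the agents for 7 days before readout.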
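Wherever viability, T/C is given: luminescence viability as percent of DMSO vehicle control wells.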

Structure (SMILES): C=CC(=O)Nc1cc(Nc2nccc(-c3cn(C)c4ccccc34)n2)c(OC)cc1N(C)CCN(C)C + C#Cc1c(F)ccc2cc(O)cc(-c3ncc4c(N5CC6CCC(C5)N6)nc(OCC56CCCN5CC(F)C6)nc4c3F)c12
- IC50 (curve of first compound, second compound 0.0316 µM): 0.526 µM
- IC50 (curve of first compound, second compound 0.1 µM): 0.472 µM
- IC50 (curve of first compound, second compound 0.316 µM): 0.158 µM
- IC50 (curve of first compound, second compound 1 µM): 0.11 µM
- IC50 (curve of first compound, second compound 3.16 µM): 0.0489 µM
- IC50 (curve of first compound, second compound 10 µM): 0.00545 µM
- viability, T/C (second compound 0.0316 µM, first compound 0.00316 µM): 96.8%
- viability, T/C (second compound 0.0316 µM, first compound 0.01 µM): 96.6%
- viability, T/C (second compound 0.0316 µM, first compound 0.0316 µM): 97.7%
- viability, T/C (second compound 0.0316 µM, first compound 0.1 µM): 89.7%
- viability, T/C (second compound 0.0316 µM, first compound 0.316 µM): 78.1%
- viability, T/C (second compound 0.0316 µM, first compound 1 µM): 15.8%
- viability, T/C (second compound 0.1 µM, first compound 0.00316 µM): 93%
- viability, T/C (second compound 0.1 µM, first compound 0.01 µM): 96.6%
- viability, T/C (second compound 0.1 µM, first compound 0.0316 µM): 91.6%
- viability, T/C (second compound 0.1 µM, first compound 0.1 µM): 84.8%
- viability, T/C (second compound 0.1 µM, first compound 0.316 µM): 71.3%
- viability, T/C (second compound 0.1 µM, first compound 1 µM): 12.4%
- viability, T/C (second compound 0.316 µM, first compound 0.00316 µM): 95.9%
- viability, T/C (second compound 0.316 µM, first compound 0.01 µM): 94.4%
- viability, T/C (second compound 0.316 µM, first compound 0.0316 µM): 84.1%
- viability, T/C (second compound 0.316 µM, first compound 0.1 µM): 69.8%
- viability, T/C (second compound 0.316 µM, first compound 0.316 µM): 20.8%
- viability, T/C (second compound 0.316 µM, first compound 1 µM): 14.4%
- viability, T/C (second compound 1 µM, first compound 0.00316 µM): 80.9%
- viability, T/C (second compound 1 µM, first compound 0.01 µM): 78.3%
- viability, T/C (second compound 1 µM, first compound 0.0316 µM): 73%
- viability, T/C (second compound 1 µM, first compound 0.1 µM): 53.7%
- viability, T/C (second compound 1 µM, first compound 0.316 µM): 19.9%
- viability, T/C (second compound 1 µM, first compound 1 µM): 14.4%
- viability, T/C (second compound 3.16 µM, first compound 0.00316 µM): 63.5%
- viability, T/C (second compound 3.16 µM, first compound 0.01 µM): 66.4%
- viability, T/C (second compound 3.16 µM, first compound 0.0316 µM): 55.7%
- viability, T/C (second compound 3.16 µM, first compound 0.1 µM): 38.7%
- viability, T/C (second compound 3.16 µM, first compound 0.316 µM): 16.2%
- viability, T/C (second compound 3.16 µM, first compound 1 µM): 13.8%
- viability, T/C (second compound 10 µM, first compound 0.00316 µM): 57.3%
- viability, T/C (second compound 10 µM, first compound 0.01 µM): 41.4%
- viability, T/C (second compound 10 µM, first compound 0.0316 µM): 32.5%
- viability, T/C (second compound 10 µM, first compound 0.1 µM): 22.5%
- viability, T/C (second compound 10 µM, first compound 0.316 µM): 17.1%
- viability, T/C (second compound 10 µM, first compound 1 µM): 13.4%

Structure (SMILES): C[C@@H](NC(=O)c1ncnc(N)c1Cl)c1ncc(C(=O)Nc2cc(C(F)(F)F)c(Cl)cn2)s1 + CCn1c(-c2cccnc2C(C)OC)c2c3cc(ccc31)N1CCOC(CC(NC(=O)C(C(C)C)N(C)C(=O)C3(F)CCN(C(=O)C#CC(C)(C)N(C)C)CC3)C(=O)N3CCCC(N3)C(=O)OCC(C)(C)C2)C1
- IC50 [1]: > 10 µM
- IC50 [2]: > 10 µM
- IC50 [3]: > 10 µM
- IC50 [4]: > 10 µM
- IC50 [5]: > 10 µM
- IC50 [6]: > 10 µM
- viability, T/C [7]: 111%
- viability, T/C [8]: 107%
- viability, T/C [9]: 91.5%
- viability, T/C [10]: 106%
- viability, T/C (second compound 0.000949 µM, first compound 3.16 µM): 73.3%
- viability, T/C (second compound 0.000949 µM, first compound 10 µM): 61.4%
- viability, T/C [11]: 112%
- viability, T/C [12]: 94%
- viability, T/C [13]: 109%
- viability, T/C [14]: 92.5%
- viability, T/C (second compound 0.003 µM, first compound 3.16 µM): 79.2%
- viability, T/C (second compound 0.003 µM, first compound 10 µM): 66%
- viability, T/C [15]: 105%
- viability, T/C [16]: 108%
- viability, T/C [17]: 87.1%
- viability, T/C [18]: 88.5%
- viability, T/C (second compound 0.00949 µM, first compound 3.16 µM): 82.1%
- viability, T/C (second compound 0.00949 µM, first compound 10 µM): 73.6%
- viability, T/C [19]: 107%
- viability, T/C [20]: 99.3%
- viability, T/C [21]: 105%
- viability, T/C [22]: 91.7%
- viability, T/C (second compound 0.03 µM, first compound 3.16 µM): 89.7%
- viability, T/C (second compound 0.03 µM, first compound 10 µM): 64.9%
- viability, T/C [23]: 97.9%
- viability, T/C [24]: 96.1%
- viability, T/C [25]: 89.5%
- viability, T/C [26]: 91.4%
- viability, T/C (second compound 0.0949 µM, first compound 3.16 µM): 87.7%
- viability, T/C (second compound 0.0949 µM, first compound 10 µM): 73.9%
- viability, T/C [27]: 103%
- viability, T/C [28]: 101%
- viability, T/C [29]: 85.4%
- viability, T/C [30]: 87.1%
- viability, T/C (second compound 0.3 µM, first compound 3.16 µM): 91.9%
- viability, T/C (second compound 0.3 µM, first compound 10 µM): 80.1%

Structure (SMILES): C=CC(=O)Nc1cc(Nc2nccc(-c3cn(C)c4ccccc34)n2)c(OC)cc1N(C)CCN(C)C + CCn1c(-c2cc(N3CCN(C)CC3)cnc2C(C)OC)c2c3cc(ccc31)-c1csc(n1)CC(NC(=O)C1CC1C)C(=O)N1CCCC(N1)C(=O)OCC(C)(C)C2
- IC50 [1]: > 1 µM
- IC50 [2]: > 1 µM
- IC50 [3]: 0.606 µM
- IC50 [4]: 0.464 µM
- IC50 [5]: 0.129 µM
- IC50 [6]: < 0.00316 µM
- viability, T/C (second compound 0.000949 µM, first compound 0.00316 µM): 87.5%
- viability, T/C (second compound 0.000949 µM, first compound 0.01 µM): 104%
- viability, T/C [7]: 91.4%
- viability, T/C [8]: 88%
- viability, T/C [9]: 98.2%
- viability, T/C [10]: 65.6%
- viability, T/C (second compound 0.003 µM, first compound 0.00316 µM): 97.7%
- viability, T/C (second compound 0.003 µM, first compound 0.01 µM): 94.6%
- viability, T/C [11]: 94.6%
- viability, T/C [12]: 89.3%
- viability, T/C [13]: 91.9%
- viability, T/C [14]: 63.1%
- viability, T/C (second compound 0.00949 µM, first compound 0.00316 µM): 93.3%
- viability, T/C (second compound 0.00949 µM, first compound 0.01 µM): 115%
- viability, T/C [15]: 81.1%
- viability, T/C [16]: 78.9%
- viability, T/C [17]: 80.4%
- viability, T/C [18]: 31.4%
- viability, T/C (second compound 0.03 µM, first compound 0.00316 µM): 92.2%
- viability, T/C (second compound 0.03 µM, first compound 0.01 µM): 91.8%
- viability, T/C [19]: 83%
- viability, T/C [20]: 85.6%
- viability, T/C [21]: 69.6%
- viability, T/C [22]: 11.8%
- viability, T/C (second compound 0.0949 µM, first compound 0.00316 µM): 81.3%
- viability, T/C (second compound 0.0949 µM, first compound 0.01 µM): 75.4%
- viability, T/C [23]: 76.5%
- viability, T/C [24]: 59.2%
- viability, T/C [25]: 18.5%
- viability, T/C [26]: 10.8%
- viability, T/C (second compound 0.3 µM, first compound 0.00316 µM): 42.3%
- viability, T/C (second compound 0.3 µM, first compound 0.01 µM): 38.4%
- viability, T/C [27]: 32.7%
- viability, T/C [28]: 23%
- viability, T/C [29]: 10.8%
- viability, T/C [30]: 8.2%

Structure (SMILES): O=C(c1ccc(F)c(F)c1Nc1ccc(I)cc1F)N1CC(O)([C@@H]2CCCCN2)C1
- viability, T/C (compound 0.00316 µM): 100% [middle of 4 runs]
- viability, T/C (compound 0.01 µM): 94.8% [middle of 4 runs]
- viability, T/C (compound 0.1 µM): 90.7% [middle of 4 runs]
- viability, T/C (compound 0.316 µM): 64.7% [middle of 4 runs]
- viability, T/C (compound 1 µM): 19% [middle of 4 runs]
- IC50 (curve of compound): 507 nM [middle of 4 runs]
